In publication PMC7265639, “Freshwater viral metagenome reveals novel and functional phage-borne antibiotic resistance genes” (Microbiome, 2020):
Values after ≈ are worked out from the molar mass of the structure shown.

How the values were obtained:
[1] = system: T1, HRV-1; experiment: UV spectrophotometric beta-lactam hydrolysis, steady-state kinetics; assay type: biochemical; conditions: 10 mM MES pH 6.8, 30 °C, 20 μg/mL BSA
T1 construct: gene blaHRV-1; expressed in E. coli BL21(DE3) from pET-30a(+)/blaHRV-1-His6 (NdeI/XhoI); His6 tag removal by enterokinase stated; purified

[2] = system: T2, E. coli BL21 (DE3)-pET-28a(+)-HRVM-1; experiment: microbe, parasite or virus in culture; design: species or system Escherichia coli BL21 (DE3) transformants; agar dilution MIC on Mueller-Hinton agar with 1 mM IPTG; conditions: Escherichia coli, read-out: MIC (μg/mL) for E. coli strain / E. coli BL21 (DE3)-pET-28a(+)-HRVM-1
T2 construct: BL21 (DE3) pET-28a(+)/blaHRVM-1-His6 transformant expressing HRVM-1 metallo-beta-lactamase
Procedure: (§1) When cultures of the cloned E. coli BL21 (DE3) cells reached approximately 0.6 at OD600, 1 mM isopropyl β-D-1-thiogalactopyranoside was added to induce expression of the blaHRV-1 or blaHRVM-1 gene followed by culture at 16 °C for 16 h. Susceptibility to benzylpenicillin, ampicillin, piperacillin, ticarcillin, oxacillin, cloxacillin, cephalothin, cefoxitin, cefotaxime, ceftazidime, cefepime, aztreonam, meropenem, imipenem (Sigma-Aldrich), and ertapenem (Merck & Co., Inc, Kenilworth, NJ, USA) against cloned E. coli BL21 (DE3) was assessed using the agar dilution technique in Mueller-Hinton agar (Difco Laboratories Inc., Detroit, MI, USA) including 1 mM IPTG with an inoculum of 10^5 CFU per spot. The PCR products were double-digested with NdeI and XhoI for the HRV-1 and NcoI and XhoI for the HRVM-1, and the digested DNAs were cloned into corresponding restriction enzyme-digested pET-28a(+) or pET-30a(+) vectors (Novagen, Madison, WI, USA). Recombinant plasmids [pET-30a(+)/blaHRV-1-His6 and pET-28a(+)/blaHRVM-1-His6] were transformed into E. coli BL21 (DE3) (Invitrogen, Carlsbad, CA, USA).

[3] = system: T3, E. coli BL21 (DE3)-pET-30a(+)-HRV-1; experiment: microbe, parasite or virus in culture; design: species or system Escherichia coli BL21 (DE3) transformants; agar dilution MIC on Mueller-Hinton agar with 1 mM IPTG; conditions: Escherichia coli, HRV1, read-out: MIC (μg/mL) for E. coli strain / E. coli BL21 (DE3)-pET-30a(+)-HRV-1
T3 construct: BL21 (DE3) pET-30a(+)/blaHRV-1-His6 transformant expressing HRV-1 beta-lactamase
Procedure: as §1

[4] = system: T4, HRVM-1; experiment: UV spectrophotometric beta-lactam hydrolysis, steady-state kinetics; assay type: biochemical; conditions: 50 mM MES pH 7.0, 100 μM ZnCl2, 100 μg/mL BSA, 30 °C
T4 construct: gene blaHRVM-1; expressed in E. coli BL21(DE3) from pET-28a(+)/blaHRVM-1-His6 (NcoI/XhoI); His6 tag removal by enterokinase stated; purified
Text: UV spectrophotometric beta-lactam hydrolysis, steady-state kinetics on HRVM-1 | the kcat/km of HRVM-1 for imipenem

Row | Structure (SMILES) | Km [1] [µM] | MIC [2] [µg/mL] | MIC [3] [µg/mL] | Km [4] [µM]
1 | CO/N=C(\C(=O)N[C@@H]1C(=O)N2C(C(=O)O)=C(COC(C)=O)CS[C@H]12)c1csc(N)n1 [cefotaxime] | 11.74 ± 0.01 | 8 (≈ 17.6 µM) | 8 (≈ 17.6 µM) | –
2 | C[C@@H](O)[C@H]1C(=O)N2C(C(=O)O)=C(S[C@@H]3CN[C@H](C(=O)Nc4cccc(C(=O)O)c4)C3)[C@H](C)[C@H]12 [Ertapenem] | – | 0.5 (≈ 1.05 µM) | 0.5 (≈ 1.05 µM) | –
3 | CCN1CCN(C(=O)N[C@@H](C(=O)N[C@@H]2C(=O)N3[C@@H]2SC(C)(C)[C@@H]3C(=O)O)c2ccccc2)C(=O)C1=O [Piperacillin] | – | 32 (≈ 61.8 µM) | 64 (≈ 124 µM) | –
4 | CO[C@@]1(NC(=O)Cc2cccs2)C(=O)N2C(C(=O)O)=C(COC(N)=O)CS[C@@H]21 [Cefoxitin] | – | 4 (≈ 9.36 µM) | 4 (≈ 9.36 µM) | –
5 | C[C@H]1[C@H](NC(=O)/C(=N\OC(C)(C)C(=O)O)c2csc(N)n2)C(=O)N1S(=O)(=O)O [Aztreonam] | – | 8 (≈ 18.4 µM) | 8 (≈ 18.4 µM) | –
6 | C[C@@H](O)[C@H]1C(=O)N2C(C(=O)O)=C(SCCN=CN)C[C@H]12 [imipenem] | – | 0.5 (≈ 1.67 µM) | 0.5 (≈ 1.67 µM) | 5.42 ± 0.01
7 | CO/N=C(\C(=O)N[C@@H]1C(=O)N2C(C(=O)[O-])=C(C[N+]3(C)CCCC3)CS[C@H]12)c1csc(N)n1 [Cefepime] | – | 4 (≈ 8.32 µM) | 4 (≈ 8.32 µM) | –
8 | CC1(C)S[C@@H]2[C@H](NC(=O)[C@H](N)c3ccccc3)C(=O)N2[C@H]1C(=O)O [Ampicillin] | – | 32 (≈ 91.6 µM) | 64 (≈ 183 µM) | –
9 | CC1(C)S[C@@H]2[C@H](NC(=O)Cc3ccccc3)C(=O)N2[C@H]1C(=O)O [Benzylpenicillin] | – | 256 (≈ 766 µM) | 512 (≈ 1530 µM) | –
10 | Cc1onc(-c2ccccc2)c1C(=O)N[C@@H]1C(=O)N2[C@@H]1SC(C)(C)[C@@H]2C(=O)O [Oxacillin] | – | 128 (≈ 319 µM) | 256 (≈ 638 µM) | –
11 | Cc1onc(-c2ccccc2Cl)c1C(=O)N[C@@H]1C(=O)N2[C@@H]1SC(C)(C)[C@@H]2C(=O)O [Cloxacillin] | – | 128 (≈ 294 µM) | 256 (≈ 587 µM) | –
12 | C[C@@H](O)[C@H]1C(=O)N2C(C(=O)O)=C(S[C@@H]3CN[C@H](C(=O)N(C)C)C3)[C@H](C)[C@H]12 [Meropenem] | – | 0.5 (≈ 1.3 µM) | 0.5 (≈ 1.3 µM) | –
13 | CC(C)(O/N=C(\C(=O)N[C@@H]1C(=O)N2C(C(=O)[O-])=C(C[n+]3ccccc3)CS[C@H]12)c1csc(N)n1)C(=O)O [ceftazidime] | 12.15 ± 0.02 | 8 (≈ 14.6 µM) | 8 (≈ 14.6 µM) | –
14 | CC(=O)OCC1=C(C(=O)O)N2C(=O)[C@@H](NC(=O)Cc3cccs3)[C@H]2SC1 [Cephalothin] | – | 32 (≈ 80.7 µM) | 32 (≈ 80.7 µM) | –
15 | CC1(C)S[C@@H]2[C@H](NC(=O)[C@H](C(=O)O)c3ccsc3)C(=O)N2[C@H]1C(=O)O [Ticarcillin] | – | 32 (≈ 83.2 µM) | 32 (≈ 83.2 µM) | –
